Test results published in PubChem BioAssay (NCI).
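96-well plates; 48 h exposure; 5 concentrations. Endpoints by linear interpolation between flanking doses. Not reached: highest tested concentration assigned. GI50: concentration for 50% inhibition of growth. TGI is the concentration that stops growth completely.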

Columns and labels:
Test in all cases: DTP human tumour cell line panel, 48 h
SK-MEL-5 melanoma = tested on: SK-MEL-5 melanoma
SK-MEL-28 melanoma = tested on: SK-MEL-28 melanoma
A498 renal = tested on: A498 renal
K-562 leukemia = tested on: K-562 leukemia
OVCAR-4 ovarian = tested on: OVCAR-4 ovarian
SNB-75 CNS = tested on: SNB-75 CNS
HOP-92 NSCLC = tested on: HOP-92 NSCLC
HL-60(TB) leukemia = tested on: HL-60(TB) leukemia
UO-31 renal = tested on: UO-31 renal
U251 CNS = tested on: U251 CNS

SMILES | GI50 (SK-MEL-5 melanoma) | TGI (SK-MEL-5 melanoma) | GI50 (SK-MEL-28 melanoma) | TGI (SK-MEL-28 melanoma) | GI50 (A498 renal) | TGI (A498 renal) | GI50 (K-562 leukemia) | TGI (K-562 leukemia) | GI50 (OVCAR-4 ovarian) | TGI (OVCAR-4 ovarian) | GI50 (SNB-75 CNS) | TGI (SNB-75 CNS) | GI50 (HOP-92 NSCLC) | TGI (HOP-92 NSCLC) | GI50 (HL-60(TB) leukemia) | TGI (HL-60(TB) leukemia) | GI50 (UO-31 renal) | TGI (UO-31 renal) | GI50 (U251 CNS) | TGI (U251 CNS)
COc1ccc(-c2oc(=O)ccc2-c2cc(OC)c(OC)c(OC)c2)cc1F | 7.46 µM | 58.7 µM | 24.7 µM | > 100 µM | 25.1 µM | 92.9 µM | 4.08 µM | > 100 µM | 36.5 µM | > 100 µM | 3.33 µM | 36.4 µM | 5.69 µM | 65 µM | 3.52 µM | 26.8 µM | 8.79 µM | 35.8 µM | 14.5 µM | > 100 µM
N#Cc1c(-c2ccc(F)cc2)c(-c2ccc(F)cc2)nn(CCO)c1=O |  | > 4.64 µM |  | > 100 µM |  | > 54.2 µM |  | > 100 µM |  | > 100 µM |  | 16.9 µM |  | > 100 µM |  | 0.292 µM |  | > 100 µM |  | > 100 µM
Ic1ccc(-n2nnnc2-c2cnoc2-c2ccccc2)cc1 | 25.7 µM | > 72.7 µM | > 62.2 µM | > 100 µM | 22 µM | 74.4 µM | 29.2 µM | > 66.6 µM | > 64.2 µM | > 100 µM | > 56.8 µM | > 100 µM | 37.9 µM | > 100 µM | 78.9 µM | > 100 µM | > 50.5 µM | > 100 µM | 44.8 µM | > 100 µM
COc1c(OC)c(OC)c(C(=O)/C=C/c2ccccc2)c(OC)c1OC |  | 26.3 µM |  | 27.3 µM |  | 17.5 µM |  | 55.5 µM |  | 30.7 µM |  | 23.1 µM |  | 17.9 µM |  | 38.2 µM |  | 22.2 µM |  | 20.5 µM
COc1cc(C2c3cc4c(cc3C(O)C(CO)C2CO)OCO4)cc(OC)c1OC (centres undefined) | 0.636 µM | > 72 µM | 1.6 µM | > 100 µM | 0.321 µM |  | 0.432 µM | > 100 µM | 7.6 µM | > 100 µM | 0.594 µM | > 100 µM | > 100 µM | > 100 µM | 0.322 µM |  |  | > 100 µM | 0.587 µM | > 100 µM
COc1ccc2[nH]cc(-c3nc(-c4c[nH]c5ncccc45)cs3)c2c1 | 2.87 µM | > 100 µM | 6.43 µM | > 100 µM | 1.16 µM | > 100 µM | 2.68 µM | > 100 µM | 6.89 µM | > 100 µM | 2.31 µM | > 100 µM | 2.13 µM | 8.12 µM | 1.81 µM | > 100 µM | 1.41 µM | > 100 µM | 3.83 µM | > 100 µM
CCN(CC)CCOc1ccc(/C=C2\CC3C4CC=C5C[C@@H](O)CC[C@]5(C)C4CC[C@]3(C)C2=O)cc1OC (some centres undefined) | 6.58 µM | 22.6 µM | 9.61 µM | 73.4 µM | 2.84 µM | 9.84 µM | 3.09 µM | > 38.2 µM | 18.8 µM | 45.9 µM | 15.6 µM | 34.8 µM | 1.45 µM | 32.2 µM | 10.1 µM | 22.3 µM |  | > 100 µM | 2.41 µM | 6.37 µM
O=c1[nH]cc(COCCO)c(=O)[nH]1 |  | > 100 µM |  | > 100 µM |  | > 100 µM |  | > 100 µM |  | > 100 µM |  | > 100 µM |  | > 100 µM |  | > 100 µM |  | > 100 µM |  | > 100 µM
Oc1cc(O)c2c(c1)OC(c1ccc(O)c(O)c1)C(OC1(c3cc(O)c(O)c(O)c3)Oc3cc(O)cc(O)c3C(O)C1O)C2 (centres undefined) |  | 34 µM |  | > 68.5 µM |  | > 49.9 µM |  | 43.6 µM |  | 67.3 µM |  | 60.8 µM |  | 84.4 µM |  | 52.8 µM |  | 50.2 µM |  | 46.2 µM
O=C(c1ccc(Cl)cc1)c1cnc(Nc2ccccc2Cl)s1 |  | 55.2 µM |  | 23.4 µM |  | 27.3 µM |  | > 100 µM |  | 98.2 µM |  | 39.2 µM |  | 49.5 µM |  | > 100 µM |  | 50.1 µM |  | > 80.9 µM
N#C/C=C(\c1ccc([N+](=O)[O-])cc1)n1nnc2cc(Cl)c(Cl)cc21 | 1.83 µM | 3.6 µM | 2.08 µM | 4.23 µM | 1.74 µM | 3.43 µM | 2.39 µM | > 100 µM | 1.54 µM | 2.89 µM | 2.13 µM | 8.11 µM | 1.78 µM | 4.28 µM | 2.71 µM | 41.1 µM | 1.11 µM | 2.32 µM | 1.71 µM | 3.37 µM
Cc1nc2cnc(N)c(C#Cc3cncc(C(=O)Nc4ccc(CN5CCN(C)CC5)c(C(F)(F)F)c4)c3)c2nc1C | 0.748 µM | 6.07 µM | 0.166 µM | 1.32 µM | 0.18 µM | 1.17 µM |  | 8.18 µM | 0.119 µM | 6.17 µM | 1.35 µM | 3.39 µM | 0.0646 µM | 0.566 µM | 0.138 µM | 3.8 µM | 1.28 µM | 5.67 µM | 2.52 µM | 19.5 µM
CC1(C)OCCn2c1nc1c(N3CCOCC3)nc(-c3cnc(N)nc3)nc12 | 0.346 µM | 2.9 µM | 0.231 µM | 4.08 µM | 0.133 µM | 0.627 µM | 2.27 µM | > 100 µM | 0.278 µM | 8.82 µM | 0.0563 µM | 0.817 µM | 0.141 µM | 1.84 µM | 0.141 µM | > 31.3 µM | 0.0912 µM | 1.11 µM | 0.673 µM | 34 µM
Cc1nc2ccccc2nc1-c1ccc(N=[N+]([O-])c2ccc(-c3nc4ccccc4nc3C)cc2)cc1 |  | > 100 µM |  | > 100 µM |  | > 89 µM |  | > 100 µM |  | > 100 µM |  | 46 µM |  | > 66.1 µM |  | > 100 µM |  | > 100 µM |  | > 63.2 µM
Nc1nccc2c1ccn2-c1ccc(NC(=O)c2ccc(N3CCOCC3)c(C(F)(F)F)c2)cc1 | 0.944 µM | 2.28 µM | 1.17 µM | 14.1 µM | 0.402 µM | 2.94 µM | 0.687 µM | > 100 µM | 1.96 µM | 24.6 µM | 0.246 µM | 1.38 µM | 0.418 µM | 3.84 µM | 0.479 µM |  | 0.573 µM | 4.15 µM | 0.341 µM | 5.19 µM
COC1C(O)=C2C(=O)O/C(C)=C/C=C/C=C/C=C\CC(c3ccccc3)NC(=O)\C=C/C=C\C=C\C=C\[C@@]2(C)[C@@H]1O (some centres undefined) |  | 0.199 µM |  | 0.0518 µM |  | 0.318 µM |  | 0.158 µM |  | 1.85 µM |  | 0.0503 µM |  | < 0.0199 µM |  | 0.0421 µM |  | 0.0607 µM |  | 0.0195 µM
CCN1CCN=c2c3cc(OC)ccc3n3cnc4ccc1c2c43 |  | 0.784 µM |  | 1.83 µM |  | 0.735 µM |  | 0.4 µM |  | 1.86 µM |  | 1.4 µM |  | 6.32 µM |  | 0.483 µM |  | 0.385 µM |  | 1.05 µM
CCCCCCC[CH2][Sn]1([CH2]CCCCCCC)[O]C(=O)c2cccnc2[S]1 | > 100 µM | > 100 µM | > 100 µM | > 100 µM | > 100 µM | > 100 µM | > 100 µM | > 100 µM | > 100 µM | > 100 µM | > 100 µM | > 100 µM | > 100 µM | > 100 µM | > 100 µM | > 100 µM | > 100 µM | > 100 µM | > 100 µM | > 100 µM
CCOC(=O)C1(c2ccccc2)CCC(=O)CC1 |  | > 100 µM |  | > 100 µM |  | > 100 µM |  | > 100 µM |  | > 100 µM |  | > 100 µM |  | > 100 µM |  | > 100 µM |  | > 100 µM |  | > 100 µM
CCN(CC)c1nc(-c2ccc(Cl)cc2Cl)nc2ccccc12 | 17.8 µM | 33.3 µM | 31.8 µM | > 100 µM | 0.702 µM | 7.63 µM | 30.8 µM | > 100 µM | 51.6 µM | > 100 µM | 43.9 µM | > 100 µM | 22 µM | 93.4 µM | 26.2 µM | > 100 µM | 24.9 µM | > 90.5 µM | 18 µM | 37.2 µM
Cc1[nH]c2ccccc2c1-c1cc(-c2cc(-c3c(C)[nH]c4ccccc34)on2)no1 |  | > 100 µM |  | > 100 µM |  | > 100 µM |  | > 100 µM |  | > 100 µM |  | 66.8 µM |  | > 100 µM |  | > 100 µM |  | > 100 µM |  | > 100 µM
CC(=O)OC12c3ccccc3-c3ccccc3C1C1C(=O)N(C)C(=O)C12Cl (centres undefined) |  | > 10 µM |  | > 10 µM |  | > 10 µM |  | > 10 µM |  | > 10 µM |  | > 10 µM |  | > 10 µM |  | > 10 µM |  | > 10 µM |  | > 10 µM
O=c1cc2oc3cc(O)c(O)cc3c(-c3ccccc3O)c-2cc1O | 19.4 µM | > 100 µM | 37.2 µM | > 100 µM | 1.44 µM | 8.36 µM | 5.76 µM | > 100 µM | 11.5 µM | > 100 µM | 3.81 µM | > 100 µM | 30.3 µM | > 100 µM | 33.5 µM | 99.6 µM | 3.3 µM | > 100 µM | 4.6 µM | > 100 µM
